Source: patent US20090246269A1, “IDENTIFICATION AND USE OF GPRC VARIANTS IN THE TREATMENT AND DIAGNOSIS OF PARKINSON'S DISEASE” (priority 2006, published 2009)

Molecular target: T1, BDKRB2 reference form (Homo sapiens, UniProt P30411)
T1 construct: expressed in transfected cells; host or cells: CHO-K1
T1 sequence (P30411 1-391): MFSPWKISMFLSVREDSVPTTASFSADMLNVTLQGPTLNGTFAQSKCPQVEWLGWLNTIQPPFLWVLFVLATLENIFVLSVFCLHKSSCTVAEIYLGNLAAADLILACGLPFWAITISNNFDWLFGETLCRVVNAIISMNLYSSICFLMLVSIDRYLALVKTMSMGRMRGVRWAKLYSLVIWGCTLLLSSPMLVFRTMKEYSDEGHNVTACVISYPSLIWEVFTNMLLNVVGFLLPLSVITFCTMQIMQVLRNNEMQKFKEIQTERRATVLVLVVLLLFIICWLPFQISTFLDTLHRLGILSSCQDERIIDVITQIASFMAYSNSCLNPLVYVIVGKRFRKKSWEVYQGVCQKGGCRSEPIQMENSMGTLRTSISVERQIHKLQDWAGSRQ
Assay: NFAT-Firefly luciferase reporter assay (Dual-Glo) of BDKRB2 dependent signaling in transfected CHO-K1 cells
Type: cell-based
Conditions: 8 hour time-point
Experimental: FIG. 10: Effect of bradyzide titration on the activity of BDKRB2 reference form. CHO-K1 cells were transfected with pNFAT—Firefly Luciferase reporter, BDKBR2-pcDNA3.1 and pGL4.73 [hRenilla Luciferase/SV40]. 18 hrs after transfection, cells were treated with bradyzide at indicated concentration in 10% FBS medium for 8, 24 and 48 hrs. The Firefly luciferase reporter activity and the renilla luciferase activity were measured sequentially. BDKRB2 activity was estimated by calculating the Ratios of Firefly and Renilla Luciferase Units (RLU).
The Promega Dual-Glo™ Assay system was used to indirectly monitor BDKRB2 dependent signaling.

In the case of CN(C)CCN(C)CCNC(=O)[C@@H]1CCCN1S(=O)(=O)c1ccc(NNC(=S)NC(c2ccccc2)c2ccccc2)c([N+](=O)[O-])c1 [bradyzide], the “inhibition of serum induced activity in luciferase reporter assay” value is reported as “inhibited” and the “reduction of serum-induced basal BDKRB2 activity” value (bradyzide titration, 10% FBS medium) is reported as “about 40%”.
